These results are taken from ChEMBL document CHEMBL1201862, “PubChem BioAssay data set” (2004).

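Method: 48-hour compound exposure of cells in 96-well plates, five concentrations, linear interpolation of endpoints. At the GI50, growth is halved.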 Activity calls are given as the source filed them. No stated cut-off is given here; in the data, active = GI50 up to about 1.1 µM and inactive = higher.

Among the test systems are UACC-257; HCT-15; NCI-H23; ACHN; HCC 2998; CAKI-1; NCI-H226; M14; EKVX; SNB-75; SF-268; KM12; SNB-19; SK-OV-3; SK-MEL-2; 786-0; OVCAR-3; A498.
What all share (test): NCI-60 cell line screen, 48 h

Take `Cn1cc2ccccc2c1-c1nc(F)nc(Oc2ccc3c(c2)CC[C@@H]2C3CC[C@]3(C)C(O)CCC23)n1` (some centres not stated): the GI50 in the test on UACC-257 was 18.8 µM (inactive); in the test on HCT-15 it was 14.6 µM; in the test with NCI-H23 it was > 10 µM (inactive); with ACHN it was 18.5 µM (inactive); in the test with HCC 2998, 19.9 µM (inactive); in the test on CAKI-1 it was > 10 µM (inactive). The GI50 with NCI-H226 was 52.7 µM (inactive); in the test on M14, 15.9 µM (inactive); with EKVX, > 10 µM (inactive); in the test on SNB-75 it was 14.2 µM (inactive); in the test with SF-268 it was 17.3 µM (inactive); in the test on KM12 it was > 10 µM (inactive). Further, the GI50 is 18.7 µM (inactive) with SNB-19; 17.2 µM (inactive) with SK-OV-3; 16.5 µM (inactive) in the test with SK-MEL-2; 16.9 µM (inactive) in the test on 786-0; 17.7 µM (inactive) in the test on OVCAR-3.

With `O=C(CCC(=O)Nc1ccc(Cl)c(Cl)c1)Cc1nc2ccccc2o1`, the GI50 was > 100 µM (inactive) in the test on UACC-257; greater than 100 µM with HCT-15; > 100 µM (inactive) in the test on A498; > 100 µM (inactive) with NCI-H23; > 100 µM (inactive) in the test with ACHN; > 100 µM (inactive) in the test on HCC 2998. Further, the GI50 in the test with CAKI-1 is > 100 µM (inactive); with NCI-H226, > 100 µM (inactive); with M14, > 100 µM (inactive); in the test on EKVX, 67.3 µM (inactive); in the test with SNB-75, > 100 µM (inactive); in the test on SF-268, > 100 µM (inactive). Moreover, the GI50 with KM12 was > 100 µM (inactive); in the test with SNB-19, > 100 µM (inactive); in the test with SK-OV-3, > 100 µM (inactive); in the test with SK-MEL-2, > 100 µM (inactive); in the test with 786-0, > 100 µM (inactive); in the test with OVCAR-3, 29.3 µM (inactive).

In the case of `COc1ccc(C2C(C(=O)O)=C(COC(C)=O)Oc3cc4c(cc32)OCO4)c(OC)c1` (configuration not stated), the GI50 was > 100 µM (inactive) in the test with UACC-257; greater than 100 µM in the test on HCT-15; > 100 µM (inactive) in the test on NCI-H23; > 100 µM (inactive) in the test on ACHN; > 100 µM (inactive) in the test with CAKI-1; > 100 µM (inactive) in the test on M14. Also, the GI50 in the test on EKVX, in the test on SNB-75, in the test with SNB-19, with SK-OV-3, in the test with SK-MEL-2 and with 786-0 was > 100 µM (inactive) each time. For the same compound, in the test on OVCAR-3, the GI50 was > 100 µM (inactive).

In the case of `CNC1=C(C)C(=O)C(C)=C(C(C)(C)CC(=O)n2cc(F)c(=O)[nH]c2=O)C1=O`, the GI50 is 68.2 µM (inactive) in the test on UACC-257; 19.9 µM in the test on HCT-15; > 23.9 µM (inactive) in the test with A498; 7.5 µM (inactive) with NCI-H23; 38.5 µM (inactive) in the test on ACHN; 1.16 µM (inactive) in the test with HCC 2998. Moreover, the GI50 is 22.8 µM (inactive) in the test on CAKI-1; 43.4 µM (inactive) with NCI-H226; 48.1 µM (inactive) with M14; 16.1 µM (inactive) in the test on EKVX; 69.3 µM (inactive) with SNB-75; 55.7 µM (inactive) in the test with SF-268. In addition, the GI50 with KM12 was 14.5 µM (inactive); with SNB-19 it was > 65.8 µM (inactive); in the test with SK-OV-3 it was > 100 µM (inactive); with SK-MEL-2, > 63.5 µM (inactive); in the test on 786-0, 22.6 µM (inactive); in the test on OVCAR-3, 38.5 µM (inactive).

Turning to `O=C(O)[C@H](NS(=O)(=O)c1ccc([N+](=O)[O-])cc1)c1ccccc1`, the GI50 with UACC-257 was > 100 µM (inactive); in the test on HCT-15, greater than 100 µM; in the test with NCI-H23, > 100 µM (inactive); in the test on ACHN, > 100 µM (inactive); in the test with HCC 2998, > 100 µM (inactive); in the test with CAKI-1, > 100 µM (inactive). In addition, the GI50 in the test with NCI-H226, in the test with M14, in the test with EKVX, with SNB-75, with SF-268 and in the test on KM12 was > 100 µM (inactive) throughout. Besides, the GI50 in the test on SNB-19, in the test with SK-OV-3, in the test with SK-MEL-2, with 786-0 and in the test on OVCAR-3 was > 100 µM (inactive) throughout.

Consider `[O-][N+]1=C(c2ccccc2)COc2ccccc21`, for which the GI50 in the test on UACC-257 was > 100 µM (inactive); in the test on HCT-15, greater than 100 µM; in the test with A498 it was > 100 µM (inactive); with NCI-H23, > 100 µM (inactive); in the test on ACHN, > 100 µM (inactive); in the test with HCC 2998, > 100 µM (inactive). For the same compound, the GI50 in the test with CAKI-1, in the test on NCI-H226, in the test with M14, with SNB-75, in the test with SF-268 and in the test with KM12 was > 100 µM (inactive) throughout. The GI50 in the test with SNB-19, in the test on SK-OV-3, in the test on SK-MEL-2, in the test with 786-0 and with OVCAR-3 was > 100 µM (inactive) each time.

With `CCCC/C=C/C1Cc2ccccc2CN1S(=O)(=O)c1ccc(C)cc1` (configuration not stated), the GI50 was 4.25 µM (inactive) in the test on UACC-257; 8.39 µM in the test with HCT-15; 4.27 µM (inactive) in the test on NCI-H23; 5.24 µM (inactive) in the test with ACHN; 12.1 µM (inactive) in the test on HCC 2998; 10 µM (inactive) in the test on NCI-H226. In addition, the GI50 in the test on M14 was 11.4 µM (inactive); in the test with EKVX, 13.7 µM (inactive); in the test with SNB-75, 13.3 µM (inactive); in the test with SF-268 it was 10.2 µM (inactive); with KM12, 9.91 µM (inactive); with SNB-19 it was 24.2 µM (inactive). Further, the GI50 with SK-OV-3 is 26.6 µM (inactive); in the test on SK-MEL-2, 14.3 µM (inactive); in the test on 786-0, 12.3 µM (inactive); in the test on OVCAR-3, 9.57 µM (inactive).

As for `NCC1(N2CCOCC2)C2CCCC21CO` (configuration not stated), the GI50 was > 100 µM (inactive) with UACC-257; greater than 100 µM in the test on HCT-15; > 100 µM (inactive) with NCI-H23; > 100 µM (inactive) in the test on ACHN; > 100 µM (inactive) in the test on HCC 2998; > 100 µM (inactive) in the test with CAKI-1. For the same compound, the GI50 in the test on NCI-H226, in the test on M14, in the test with SNB-75, in the test with SF-268, in the test on KM12 and with SNB-19 was > 100 µM (inactive) throughout. Also, the GI50 in the test with SK-OV-3, with SK-MEL-2, in the test on 786-0 and in the test on OVCAR-3 was > 100 µM (inactive) each time.

Consider `COC(=O)C(=O)C(C(=O)C(=O)Nc1ccccc1C(N)=O)c1nc2ccc(C(=O)c3ccccc3)cc2nc1O` (configuration not stated), for which the GI50 with UACC-257 is > 100 µM (inactive); in the test on HCT-15, greater than 100 µM; with A498 it was 45 µM (inactive); in the test with NCI-H23, > 100 µM (inactive); in the test on ACHN, > 100 µM (inactive); in the test on HCC 2998, > 100 µM (inactive). For the same compound, the GI50 in the test on CAKI-1 was 25.9 µM (inactive); with NCI-H226, 92.7 µM (inactive); in the test with M14 it was > 100 µM (inactive); in the test on EKVX, > 100 µM (inactive); in the test on SF-268, > 100 µM (inactive); with KM12, 67.3 µM (inactive). The GI50 in the test on SNB-19, with SK-MEL-2 and in the test with 786-0 was > 100 µM (inactive) each time.

As for `O=C1COc2cc3c(cc2N1)SCC(=O)N3`, the GI50 with UACC-257, in the test on NCI-H23, with HCC 2998, in the test on CAKI-1, with NCI-H226 and with M14 was > 100 µM (inactive) in each case. For the same compound, the GI50 in the test with EKVX was 6.41 µM (inactive); with SNB-75, > 100 µM (inactive); in the test on SF-268 it was > 100 µM (inactive); in the test with KM12, > 100 µM (inactive); in the test on SNB-19, > 100 µM (inactive); in the test with SK-OV-3 it was > 100 µM (inactive). The GI50 with SK-MEL-2, in the test on 786-0 and with OVCAR-3 was > 100 µM (inactive) throughout.

In the case of `c1ccc(N2N=NC3C4CC(C5c6ccccc6C45)C32)cc1` (configuration not stated), the GI50 in the test on UACC-257 is 24.2 µM (inactive); in the test on HCT-15, 31.3 µM; in the test on A498 it was 39.1 µM (inactive); in the test with NCI-H23, 24 µM (inactive); in the test with CAKI-1, 31 µM (inactive); in the test on NCI-H226, 37.8 µM (inactive). Further, the GI50 in the test with M14 was 54.1 µM (inactive); in the test on EKVX it was 37.4 µM (inactive); in the test on SNB-75 it was 35.7 µM (inactive); in the test with SF-268, 34.8 µM (inactive); with KM12 it was 39.3 µM (inactive); in the test on SNB-19 it was 69.5 µM (inactive). Moreover, the figures for the GI50 in the test with SK-OV-3, in the test on 786-0 and in the test with OVCAR-3 were 31.5 µM (inactive), 59 µM (inactive) and 26.6 µM (inactive), respectively.

For `Nc1ccc(C(=O)CC2(O)C(=O)Nc3c(Cl)cc(Cl)cc32)cc1` (configuration not stated), the GI50 in the test on UACC-257 is 75.5 µM (inactive); in the test with HCT-15 it was 69.7 µM; with A498 it was > 100 µM (inactive); with NCI-H23, 83 µM (inactive); in the test with ACHN, 94.8 µM (inactive); in the test on HCC 2998, > 100 µM (inactive). Also, the GI50 is > 100 µM (inactive) in the test with NCI-H226; > 100 µM (inactive) in the test on M14; > 100 µM (inactive) in the test with EKVX; 58.1 µM (inactive) in the test with SNB-75; > 100 µM (inactive) in the test with SF-268; 83 µM (inactive) in the test on KM12. Further, the GI50 in the test on SNB-19, with SK-OV-3, in the test on SK-MEL-2, in the test with 786-0 and in the test on OVCAR-3 was > 100 µM (inactive) throughout.

For `COC(=O)/C=C/C(=O)C1C(C(=O)OC)C2(C(=O)OC)CCC1(C(=O)OC)N2` (configuration not stated), the GI50 was greater than 100 µM in the test with HCT-15; > 100 µM (inactive) in the test with NCI-H23; > 100 µM (inactive) in the test on HCC 2998; > 100 µM (inactive) in the test with CAKI-1; > 100 µM (inactive) with M14; > 100 µM (inactive) in the test with EKVX. For the same compound, the GI50 in the test on SF-268, with KM12, in the test on SNB-19, in the test on SK-OV-3, in the test on SK-MEL-2 and in the test on 786-0 was > 100 µM (inactive) throughout. For the same compound, in the test with OVCAR-3, the GI50 was > 100 µM (inactive).
